In patent publication US5192784A, “Etanidazole injectable solution” (Du Pont Merck Pharmaceutical Company, priority 1992, dated 1993):

Assay: Chemical stability (hydrolysis kinetics) of etanidazole in buffered solutions at 80° C.
Assay type: physicochemical
Details: for kobs, observed first-order rate constant: mean, n = 3
Description: The k values shown in Tables 1-5 and FIG. 1 should be multipled by a factor of 2.303 to provide the actual k value.
The chemical stability of etanidazole was evaluated in solutions of varying composition stored at 80° C. Etanidazole was placed into suitable containers and sufficient buffer was added to result in a 1 mg/ml solution. A constant ionic strength of 0.3 was maintained with potassium chloride. All solutions were prepared in triplicate. The solution was divided into 2 ml sealed glass vials and was placed into cardboard storage boxes to protect the compound from light. At appropriate intervals, samples were removed from the stability chamber and cooled to room temperature. An aliquot of the sample was diluted with mobile phase containing internal standard prior to HPLC analysis. For those pH conditions where degradation was rapid, the sample aliquot was immediately quenched to neutral pH and room temperature.
Data were analyzed using methods as described by Martin et al. in "Physical Pharmacy", 3rd ed, pp 352-395 (1983).
In the intermediate pH range where buffers were employed, the observed first-order rate constant can be defined at any given pH with the following equation;
[…] [H+]+ko +kOH- [OH-]+kB [BT ]
where kH+ and kOH- are the second-order specific acid and specifiic base catalysis rate constants, respectively kB is the second-order rate constant for the catalysis due to the buffer, and [BT ] is the total buffer concentration. Plotting kobs vs [BT ] yields a slope of kB and a y-intercept of kH+ [H+]+ko +kOH- [OH-], the observed rate constant extrapolated to zero buffer concentration (k'). The observed rate constant extrapolated to zero buffer concentration (k') are used to generate the pH-rate profile (FIG. 1).
The buffer systems permit pH control through the equilibrium of their acidic and basic forms. Utilizing these equilibria, the rate constants for the individual buffer species may be calculated. In the acetate buffers, the second-order rate constant for the catalysis due to the acetate buffer is defined as follows;
[…]
where ^f CH3 COOH is the fraction of the acetate buffer in the neutral form, ^k (CH3 COOH) is the second-order rate constant for the catalysis due to the acetic acid species, ^f CH3 COO- is the fraction of the acetate buffer in the ionized form and ^k CH3 COO- is the second-order rate constant for the catalysis due to the acetate anion. Employing the same buffer for various pH conditions permits the determination of the second-order rate constants for the various species (Table 3).

Q: Which results are given for O=C(Cn1ccnc1[N+](=O)[O-])NCCO [Etanidazole]?
A: kobs, observed first-order rate constant (0.01M HCl pH 2.2, 80° C.): 0.00824 day⁻¹; kobs, observed first-order rate constant (0.013M Citrate pH 6.5, 80° C.): 0.0106 day⁻¹; kobs, observed first-order rate constant (0.02M Citrate pH 5.5, 80° C.): 0.00843 day⁻¹; kobs, observed first-order rate constant (0.025M Phosphate pH 6.5, 80° C.): 0.0195 day⁻¹; kobs, observed first-order rate constant (0.03M Citrate pH 6.5, 80° C.): 0.0119 day⁻¹; kobs, observed first-order rate constant (0.05M Acetate pH 4.0, 80° C.): 0.00119 day⁻¹; kobs, observed first-order rate constant (0.05M Acetate pH 5.0, 80° C.): 0.00386 day⁻¹; kobs, observed first-order rate constant (0.05M Borate pH 9.2, 80° C.): 0.0333 day⁻¹; kobs, observed first-order rate constant (0.05M Citrate pH 3.0, 80° C.): 0.00575 day⁻¹; kobs, observed first-order rate constant (0.05M Citrate pH 4.5, 80° C.): 0.00336 day⁻¹; kobs, observed first-order rate constant (0.05M Citrate pH 5.5, 80° C.): 0.00957 day⁻¹; kobs, observed first-order rate constant (0.05M Phosphate pH 6.5, 80° C.): 0.0135 day⁻¹; kobs, observed first-order rate constant (0.05M Phosphate pH 7.4, 80° C.): 0.0168 day⁻¹; kobs, observed first-order rate constant (0.065M Citrate pH 6.5, 80° C.): 0.0132 day⁻¹; kobs, observed first-order rate constant (0.1M Acetate pH 4.0, 80° C.): 0.00185 day⁻¹; kobs, observed first-order rate constant (0.1M Acetate pH 5.0, 80° C.): 0.00516 day⁻¹; kobs, observed first-order rate constant (0.1M Borate pH 9.2, 80° C.): 0.0382 day⁻¹; kobs, observed first-order rate constant (0.1M Citrate pH 3.0, 80° C.): 0.00882 day⁻¹; kobs, observed first-order rate constant (0.1M Citrate pH 4.5, 80° C.): 0.00587 day⁻¹; kobs, observed first-order rate constant (0.1M Citrate pH 5.5, 80° C.): 0.0101 day⁻¹; kobs, observed first-order rate constant (0.1M HCl pH 1.0, 80° C.): 0.0961 day⁻¹; kobs, observed first-order rate constant (0.1M NaOH pH 12.6, 80° C.): 13.1 day⁻¹; kobs, observed first-order rate constant (0.1M Phosphate pH 6.5, 80° C.): 0.0149 day⁻¹; kobs, observed first-order rate constant (0.1M Phosphate pH 7.4, 80° C.): 0.0187 day⁻¹; kobs, observed first-order rate constant (0.135M Phosphate pH 7.4, 80° C.): 0.0183 day⁻¹; kobs, observed first-order rate constant (0.18M Citrate pH 4.5, 80° C.): 0.00789 day⁻¹; kobs, observed first-order rate constant (0.25M Acetate pH 4.0, 80° C.): 0.00342 day⁻¹; kobs, observed first-order rate constant (0.25M Acetate pH 5.0, 80° C.): 0.00801 day⁻¹; kobs, observed first-order rate constant (0.25M Borate pH 9.2, 80° C.): 0.0596 day⁻¹; kobs, observed first-order rate constant (0.25M Citrate pH 3.0, 80° C.): 0.0197 day⁻¹; kobs, observed first-order rate constant (0.3M HCl pH 0.62, 80° C.): 0.263 day⁻¹; kobs, observed first-order rate constant (0.3M NaOH pH 13.1, 80° C.): 52.9 day⁻¹; k', first-order rate constant extrapolated to zero buffer concentration (Acetate pH 4.0, 80° C.): 0.000688 day⁻¹; kB, second-order rate constant for the buffer catalysis (Acetate pH 4.0, 80° C.): 1.27e-07 M⁻¹ s⁻¹; k', first-order rate constant extrapolated to zero buffer concentration (Acetate pH 5.0, 80° C.): 0.00296 day⁻¹; kB, second-order rate constant for the buffer catalysis (Acetate pH 5.0, 80° C.): 2.35e-07 M⁻¹ s⁻¹; kB, second-order rate constant for the buffer species (Acetic acid, 80° C.): 9.41e-08 M⁻¹ s⁻¹; kB, second-order rate constant for the buffer species (Acetic^-1, 80° C.): 3.17e-07 M⁻¹ s⁻¹; k', first-order rate constant extrapolated to zero buffer concentration (Borate pH 9.2, 80° C.): 0.0258 day⁻¹; kB, second-order rate constant for the buffer catalysis (Borate pH 9.2, 80° C.): 1.55e-06 M⁻¹ s⁻¹; k', first-order rate constant extrapolated to zero buffer concentration (Citrate pH 3.0, 80° C.): 0.00204 day⁻¹; kB, second-order rate constant for the buffer catalysis (Citrate pH 3.0, 80° C.): 8.15e-07 M⁻¹ s⁻¹; k', first-order rate constant extrapolated to zero buffer concentration (Citrate pH 4.5, 80° C.): 0.00197 day⁻¹; kB, second-order rate constant for the buffer catalysis (Citrate pH 4.5, 80° C.): 3.94e-07 M⁻¹ s⁻¹; k', first-order rate constant extrapolated to zero buffer concentration (Citrate pH 5.5, 80° C.): 0.00824 day⁻¹; kB, second-order rate constant for the buffer catalysis (Citrate pH 5.5, 80° C.): 2.29e-07 M⁻¹ s⁻¹; k', first-order rate constant extrapolated to zero buffer concentration (Citrate pH 6.5, 80° C.): 0.0102 day⁻¹; kB, second-order rate constant for the buffer catalysis (Citrate pH 6.5, 80° C.): 5.57e-07 M⁻¹ s⁻¹; kB, second-order rate constant for the buffer species (Citrate^-3, 80° C.): 9.4e-07 M⁻¹ s⁻¹; kB, second-order rate constant for the buffer species (Citric Acid, 80° C.): 1.03e-06 M⁻¹ s⁻¹; kB, second-order rate constant for the buffer species (Dihydrogen citrate^-1, 80° C.): 5.3e-07 M⁻¹ s⁻¹; kB, second-order rate constant for the buffer species (Dihydrogen phosphate^-1, 80° C.): 3.95e-07 M⁻¹ s⁻¹; kB, second-order rate constant for the buffer species (Hydrogen citrate^-2, 80° C.): 8.23e-08 M⁻¹ s⁻¹; kB, second-order rate constant for the buffer species (Hydrogen phosphate^-2, 80° C.): 1.17e-07 M⁻¹ s⁻¹; k', first-order rate constant extrapolated to zero buffer concentration (Phosphate pH 6.5, 80° C.): 0.0119 day⁻¹; kB, second-order rate constant for the buffer catalysis (Phosphate pH 6.5, 80° C.): 3.5e-07 M⁻¹ s⁻¹; k', first-order rate constant extrapolated to zero buffer concentration (Phosphate pH 7.4, 80° C.): 0.0161 day⁻¹; kB, second-order rate constant for the buffer catalysis (Phosphate pH 7.4, 80° C.): 2.2e-07 M⁻¹ s⁻¹; primary route of degradation (analysis of degradation product, 80° C.): through the hydrolysis of the amide linkage; buffer catalysis of degradation (citrate and acetate at the pH minimum, 80° C.): Citrate and acetate were both catalytic at the pH minimum, with citrate being a stronger catalyst than acetate; pH at which overall rate constant was minimum (hydrolysis, 80° C.): approximately 4; kinetics of hydrolysis (pH range of 0.6 to 12.6, 80° C.): apparent first-order kinetics; effect of concentration and ionic strength on stability (summary, 80° C.): negligible effects on the stability
